SMILES strings stand for the structures.

One assay has as its target TYK2 kinase domain (JH1) (Homo sapiens (Human), UniProt P29597). The experiment in a line: TYK2 Radioactive Kinase Assay. It is filed as biochemical. To be noted: compound at 10 μM; ATP at 10 μM; 120 min at room temp. The protocol:
(§1) Peptide substrate, [KKSRGDYMTMQIG], (20 μM) was prepared in reaction buffer (20 mM Hepes pH 7.5, 10 mM MgCl2, 1 mM EGTA, 0.02% Brij35, 0.02 mg/mL BSA, 0.1 mM […], 2 mM DTT, 1% DMSO). TYK2 (Invitrogen) kinase was added, followed by compounds in DMSO. ^33PATP was added to initiate the reaction in ATP at 10 μM. The kinase reaction was incubated for 120 min at room temp and reactions were spotted onto P81 ion exchange paper (Whatman #3698-915), and then washed extensively in 0.75% phosphoric acid, prior to reading the radioactivity counts. For JAK2 (Invitrogen) kinase assay the peptide substrate poly[Glu:Tyr](4:1), 0.2 mg/ml was used, in the reaction carried out the same as for TYK2.
(§2) The TYK2 and JAK2 radioactive kinase assay measures the percent inhibition at the TYK2 kinase domain (JH1) and the percent inhibition at the JAK2 kinase domain (JH1). Results of the assay are expressed as percent inhibition at 10 μM.

The target in the next assay is JAK2 kinase domain (JH1) (Homo sapiens (Human), UniProt O60674). The experiment in a line: JAK2 Radioactive Kinase Assay. It is filed as biochemical. To be noted: compound at 10 μM; ATP at 10 μM; substrate poly[Glu:Tyr](4:1). The protocol: as §1, §2
In assay [1] the target is human TYK2 (JH2domain-pseudokinase) (Homo sapiens (Human), UniProt P29597). The experiment in a line: TYK2 JH2 Domain Binding Assay (KINOMEscan). The following applies: 11-point 3-fold dilution, top concentration 30,000 nM, duplicate. The protocol:
Binding constants for compounds of the present invention against the JH2 domain were determined by the following protocol for a KINOMEscan® assay (DiscoveRx). A fusion protein of a partial length construct of human TYK2 (JH2domain-pseudokinase) (amino acids G556 to D888 based on reference sequence NP_003322.3) and the DNA binding domain of NFkB was expressed in transiently transfected HEK293 cells. From these HEK 293 cells, extracts were prepared in M-PER extraction buffer (Pierce) in the presence of Protease Inhibitor Cocktail Complete (Roche) and Phosphatase Inhibitor Cocktail Set II (Merck) per manufacturers' instructions. The TYK2(JH2domain-pseudokinase) fusion protein was labeled with a chimeric double-stranded DNA tag containing the NFkB binding site (5′-GGGAATTCCC-3′) fused to an amplicon for qPCR readout, which was added directly to the expression extract (the final concentration of DNA-tag in the binding reaction is 0.1 nM).
Streptavidin-coated magnetic beads (Dynal M280) were treated with a biotinylated small molecule ligand for 30 minutes at room temperature to generate affinity resins for the binding assays. The liganded beads were blocked with excess biotin and washed with blocking buffer (SeaBlock (Pierce), 1% BSA, 0.05% Tween 20, 1 mM DTT) to remove unbound ligand and to reduce nonspecific binding.
The binding reaction was assembled by combining 16 μl of DNA-tagged kinase extract, 3.8 μl liganded affinity beads, and 0.18 μl test compound (PBS/0.05% Tween 20/10 mM DTT/0.1% BSA/2 μg/ml sonicated salmon sperm DNA). Extracts were used directly in binding assays without any enzyme purification steps at a ≥10,000-fold overall stock dilution (final DNA-tagged enzyme concentration <0.1 nM). Extracts were loaded with DNA-tag and diluted into the binding reaction in a two step process. First extracts were diluted 1:100 in 1× binding buffer (PBS/0.05% Tween 20/10 mM DTT/0.1% BSA/2 μg/ml sonicated salmon sperm DNA) containing 10 nM DNA-tag. This dilution was allowed to equilibrate at room temperature for 15 minutes and then subsequently diluted 1:100 in 1× binding buffer. All reactions were performed in polypropylene 384-well plates. Each was a final volume of 0.02 mL. Assays were incubated with shaking for 1 hour at room temperature. Then the beads were pelleted and washed with wash buffer (1×PBS, 0.05% Tween 20) to remove displaced kinase and test compound. The washed based were re-suspended in elution buffer (1×PBS, 0.05% Tween 20, 0.5 μM non-biotinylated affinity ligand) and incubated at room temperature with shaking for 30 minutes. The kinase concentration in the eluates was measured by qPCR. qPCR reactions were assembled by adding 2.5 μL of kinase eluate to 7.5 μL of qPCR master mix containing 0.15 μM amplicon primers and 0.15 μM amplicon probe. The qPCR protocol consisted of a 10 minute hot start at 95° C., followed by 35 cycles of 95° C. for 15 seconds, 60° C. for 1 minute.
Test compounds were prepared as 111× stocks in 100% DMSO. Kd values were determined using an 11-point 3-fold compound dilution series with three DMSO control points. All compounds for Kd measurements are distributed by acoustic transfer (non-contact dispensing) in 100% DMSO. The compounds were then diluted directly into the assays such that the final concentration of DMSO was 0.9%. The Kd values were determined using a compound top concentration of 30,000 nM. Kd measurements were performed in duplicate.
Binding constants (Kds) were calculated with a standard dose-response curve using the Hill equation: […]
The Hill Slope was set to −1. Curves were fitted using a non-linear least square fit with the Levenberg-Marquardt algorithm (Levenberg, K., A method for the solution of certain non-linear problems in least squares, Q. Appl. Math. 2, 164-168 (1944)).

JAK2 kinase domain (JH1), sequence (O60674 849-1124): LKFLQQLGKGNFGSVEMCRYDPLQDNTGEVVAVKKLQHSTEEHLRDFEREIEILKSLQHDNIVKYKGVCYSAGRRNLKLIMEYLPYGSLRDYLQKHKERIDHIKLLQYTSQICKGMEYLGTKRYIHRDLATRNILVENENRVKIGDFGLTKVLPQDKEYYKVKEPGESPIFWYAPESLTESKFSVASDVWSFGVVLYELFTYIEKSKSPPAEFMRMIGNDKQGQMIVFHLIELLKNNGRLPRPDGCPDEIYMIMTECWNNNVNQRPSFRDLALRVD
human TYK2 (JH2domain-pseudokinase), sequence (P29597 556-888): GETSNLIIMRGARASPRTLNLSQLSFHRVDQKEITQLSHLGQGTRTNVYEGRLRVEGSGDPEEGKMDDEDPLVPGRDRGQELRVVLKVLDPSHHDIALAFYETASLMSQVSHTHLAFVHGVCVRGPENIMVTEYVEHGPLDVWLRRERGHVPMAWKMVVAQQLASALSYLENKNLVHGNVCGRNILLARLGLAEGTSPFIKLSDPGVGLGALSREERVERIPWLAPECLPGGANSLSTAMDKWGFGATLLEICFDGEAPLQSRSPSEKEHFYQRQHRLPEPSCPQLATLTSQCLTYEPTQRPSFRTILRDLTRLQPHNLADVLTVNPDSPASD
TYK2 kinase domain (JH1), sequence (P29597 897-1176): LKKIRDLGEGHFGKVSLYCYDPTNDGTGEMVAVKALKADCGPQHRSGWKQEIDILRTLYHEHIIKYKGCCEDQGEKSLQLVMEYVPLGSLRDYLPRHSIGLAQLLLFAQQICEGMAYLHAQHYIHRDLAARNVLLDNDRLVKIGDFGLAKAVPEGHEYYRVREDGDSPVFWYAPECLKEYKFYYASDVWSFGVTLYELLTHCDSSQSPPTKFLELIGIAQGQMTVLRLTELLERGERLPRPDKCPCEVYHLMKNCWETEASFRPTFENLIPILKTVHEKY

Take `CNC(=O)c1cnc(NC(=O)C2CC2)c2[nH]c(-c3ccccc3C3(S(C)(=O)=O)CC3)cc12` [Compound I-5, 7-(cyclopropanecarboxamido)-N-methyl-2-(2-(1-(methylsulfonyl)cyclopropyl)phenyl)-1H-pyrrolo[2,3-c]pyridine-4-carboxamide]: the inhibition at 10 µM at TYK2 kinase domain (JH1) and on JAK2 kinase domain (JH1) was less than 50% throughout. Moreover, in assay [1], the Kd fell in the range of 1 to 10 nM.

Consider `CNC(=O)c1cnc(NC(=O)C2CC2)c2[nH]c(-c3ccc(C(=O)N4CCCC4)cc3OC)cc12` [Compound I-25, 7-(cyclopropanecarboxamido)-2-(2-methoxy-4-(pyrrolidine-1-carbonyl)phenyl)-N-methyl-1H-pyrrolo[2,3-c]pyridine-4-carboxamide], for which the inhibition at 10 µM on TYK2 kinase domain (JH1) and on JAK2 kinase domain (JH1) was less than 50% each time. For the same molecule, the Kd in assay [1] was less than 0.2 nM.

As to `CNC(=O)c1cnc(NC(=O)C2CC2)c2[nH]c(-c3cc(-c4ccn(C)n4)cnc3OC3CC3)cc12` [Compound I-38, 7-(cyclopropanecarboxamido)-2-(2-cyclopropoxy-5-(1-methyl-1H-pyrazol-3-yl)pyridin-3-yl)-N-methyl-1H-pyrrolo[2,3-c]pyridine-4-carboxamide], the inhibition at 10 µM at TYK2 kinase domain (JH1) and on JAK2 kinase domain (JH1) was less than 50% in each case. Besides, the Kd in assay [1] lay within 1 to 10 nM.

Turning to `[2H]C([2H])([2H])NC(=O)c1cnc(NC(=O)C2CC2)c2[nH]c(-c3cccc(-c4ncn(C)n4)n3)cc12` [Compound I-35, 7-(cyclopropanecarboxamido)-N-(methyl-d3)-2-(6-(1-methyl-1H-1,2,4-triazol-3-yl)pyridin-2-yl)-1H-pyrrolo[2,3-c]pyridine-4-carboxamide], the inhibition at 10 µM at TYK2 kinase domain (JH1) and on JAK2 kinase domain (JH1) was less than 50% throughout. In assay [1], this molecule returned a Kd of 0.2 to 1 nM.

Regarding `CNC(=O)c1cnc(NC(=O)C2CC2)c2[nH]c(-c3cc(-c4nccs4)ccn3)cc12` [Compound I-14, 7-(cyclopropanecarboxamido)-N-methyl-2-(4-(thiazol-2-yl)pyridin-2-yl)-1H-pyrrolo[2,3-c]pyridine-4-carboxamide], the inhibition at 10 µM at TYK2 kinase domain (JH1) and at JAK2 kinase domain (JH1) was less than 50% each time. This molecule also registered a Kd in assay [1] of 0.2 to 1 nM.

As for `CCOc1ncccc1-c1cc2c(C(=O)NC)cnc(NC(=O)C3CC3)c2[nH]1` [Compound I-33, 7-(cyclopropanecarboxamido)-2-(2-ethoxypyridin-3-yl)-N-methyl-1H-pyrrolo[2,3-c]pyridine-4-carboxamide], the inhibition at 10 µM on TYK2 kinase domain (JH1) and on JAK2 kinase domain (JH1) was less than 50% in each case. This molecule also had a Kd in assay [1] of 0.2 to 1 nM.

Consider `CNC(=O)c1cnc(NC(=O)C2CC2)c2[nH]c(-c3ccc(OC)cc3[C@H]3COCCO3)cc12` [Compound I-71], for which the Kd in assay [1] is more than 10 nM.

In the case of `CCc1csc(-c2cc3c(C(=O)NC)cnc(NC(=O)C4CC4)c3[nH]2)n1` [Compound I-70, 7-(cyclopropanecarboxamido)-2-(4-ethylthiazol-2-yl)-N-methyl-1H-pyrrolo[2,3-c]pyridine-4-carboxamide], the Kd in assay [1] lay in the range of 0.2 to 1 nM.

As for `CNC(=O)c1cnc(NC(=O)C2CC2)c2[nH]c(-c3cccc(-c4cn5c(n4)COCC5)c3F)cc12` [Compound I-79, 7-(cyclopropanecarboxamido)-2-(3-(5,6-dihydro-8H-imidazo[2,1-c][1,4]oxazin-2-yl)-2-fluorophenyl)-N-methyl-1H-pyrrolo[2,3-c]pyridine-4-carboxamide], in assay [1], the Kd was less than 0.2 nM.

`CNC(=O)c1cnc(NC(=O)C2CC2)c2[nH]c(-c3cccc(-c4cn5c(n4)CCC5)c3F)cc12` [Compound I-69, 7-(cyclopropanecarboxamido)-2-(3-(6,7-dihydro-5H-pyrrolo[1,2-a]imidazol-2-yl)-2-fluorophenyl)-N-methyl-1H-pyrrolo[2,3-c]pyridine-4-carboxamide] gave a Kd in assay [1] of less than 0.2 nM.

Molecule `CNC(=O)c1cnc(NC(=O)C2CC2)c2[nH]c(-c3cccc(-c4cn5c(n4)OCCC5)c3F)cc12` [Compound I-76, 7-(cyclopropanecarboxamido)-2-(3-(6,7-dihydro-5H-imidazo[2,1-b][1,3]oxazin-2-yl)-2-fluorophenyl)-N-methyl-1H-pyrrolo[2,3-c]pyridine-4-carboxamide] displayed a Kd in assay [1] of less than 0.2 nM.

With `CNC(=O)c1cnc(NC(=O)C2CC2)c2[nH]c(-c3ccc(C4COCCO4)cc3OC)cc12` (stereo not drawn) [Compound I-89, 2-(4-(1,4-dioxan-2-yl)-2-methoxyphenyl)-7-(cyclopropanecarboxamido)-N-methyl-1H-pyrrolo[2,3-c]pyridine-4-carboxamide], the Kd in assay [1] lay within 0.2 to 1 nM.

`CNC(=O)c1cnc(NC(=O)C2CC2)c2[nH]c(-c3c(F)cc(-c4nccn4C)cc3N3CCC(F)(F)C3)cc12` [Compound I-83, 7-(cyclopropanecarboxamido)-2-(2-(3,3-difluoropyrrolidin-1-yl)-6-fluoro-4-(1-methyl-1H-imidazol-2-yl)phenyl)-N-methyl-1H-pyrrolo[2,3-c]pyridine-4-carboxamide]: the Kd in assay [1] was less than 0.2 nM.

Molecule `CNC(=O)c1cnc(NC(=O)C2CC2)c2[nH]c(-c3cccc(-c4cn5c(n4)C(C)(C)OCC5)c3F)cc12` [Compound I-84, 7-(cyclopropanecarboxamido)-2-(3-(8,8-dimethyl-5,6-dihydro-8H-imidazo[2,1-c][1,4]oxazin-2-yl)-2-fluorophenyl)-N-methyl-1H-pyrrolo[2,3-c]pyridine-4-carboxamide] returned a Kd in assay [1] of less than 0.2 nM.

As to `CNC(=O)c1cnc(NC(=O)C2CC2)c2[nH]c(-c3ccc(C4COCCO4)cc3OC)cc12` (stereo not drawn) [Compound I-61, 2-(4-(1,4-dioxan-2-yl)-2-methoxyphenyl)-7-(cyclopropanecarboxamido)-N-methyl-1H-pyrrolo[2,3-c]pyridine-4-carboxamide], the Kd in assay [1] was more than 10 nM.

On to `CNC(=O)c1cnc(NC(=O)C2CC2)c2[nH]c(-c3c(F)cc(-c4nccn4C)cc3F)cc12` [Compound I-77, 7-(cyclopropanecarboxamido)-2-(2,6-difluoro-4-(1-methyl-1H-imidazol-2-yl)phenyl)-N-methyl-1H-pyrrolo[2,3-c]pyridine-4-carboxamide], for which, in assay [1], the Kd was less than 0.2 nM.

As for `CNC(=O)c1cnc(NC(=O)C2CC2)c2[nH]c(-c3cccc(-c4cnc(C)o4)c3F)cc12` [Compound I-81, 7-(cyclopropanecarboxamido)-2-(2-fluoro-3-(2-methyloxazol-5-yl)phenyl)-N-methyl-1H-pyrrolo[2,3-c]pyridine-4-carboxamide], in assay [1], the Kd is less than 0.2 nM.

`CNC(=O)c1cnc(NC(=O)C2CC2)c2[nH]c(-c3cccn(C4CCCOC4)c3=O)cc12` (stereo in doubt) [Compound I-55, (S)-7-(cyclopropanecarboxamido)-N-methyl-2-(2-oxo-1-(tetrahydro-2H-pyran-3-yl)-1,2-dihydropyridin-3-yl)-1H-pyrrolo[2,3-c]pyridine-4-carboxamide]: the Kd in assay [1] lay in the range of 0.2 to 1 nM.

(Values after patent publication US11053241B2, “TYK2 inhibitors and uses thereof” (Nimbus Lakshmi, Inc., priority 2018, dated 2021).)
